From ChEMBL document CHEMBL1124909 (J Med Chem, 1990)

Experiments:
Assay type in all cases: functional
Details in all cases: 720 h
Mus musculus [1] = assay: The percentage 30-day survival of the mice at 600 mg/kg dose, with the radiation dose of 10 GY.
Mus musculus [2] = assay: The percentage 30-day survival of the mice at 75 mg/kg dose, with the radiation dose of 10 Gy.
Mus musculus [3] = assay: The percentage 30-day survival of the mice at 150 mg/kg dose, with the radiation dose of 10 Gy.
Mus musculus [4] = assay: The percentage 30-day survival of the mice at 300 mg/kg dose, with the radiation dose of 10 GY.

Q: How did the survival at 600 mg/kg (Mus musculus [1]) turn out when NCCCNCCSP(=O)(O)O [AMIFOSTINE] was run?
A: Its survival at 600 mg/kg is 100%.

Q: And the survival at 75 mg/kg (Mus musculus [2])?
A: The survival at 75 mg/kg was 40%.

Q: What about the survival at 150 mg/kg (Mus musculus [3]) of the same compound?
A: Its survival at 150 mg/kg is 40%.

Q: What about the survival at 300 mg/kg (Mus musculus [4]) of the same compound?
A: Its survival at 300 mg/kg is 100%.
